Laboratory results published in US20210283163A1, “COMPOSITIONS AND METHODS FOR THE TREATMENT OF ACUTE AND CHRONIC PRURITIS” (Duke University, priority 2018, published 2021).

Columns and labels:
Format in all cases: cell-based
[1] = test system: human DRG neurons; experiment: Whole-cell patch clamp, inward currents in human DRG neurons; conditions: A967079 10 μM
Procedure: Non-diseased human DRGs were obtained from donors through National Disease Research Interchange (NDRI) with permission of exemption from the Duke University Institutional Review Board (IRB). Postmortem L3-L5 DRGs were dissected from 4 donors and delivered in ice cold culture medium to the laboratory at Duke University within 24-72 hr of the donor's death. Upon the delivery, DRGs were rapidly dissected from nerve roots and minced in a calcium-free HBSS (GIBCO). Human DRG cultures were prepared as previously reported (Chang et al., Neurosci. Bull. 2018, 34, 4-12; Han et al., Neuron 2016, 92, 1279-1293). DRGs were digested at 37° C. in a humidified CO2 incubator for 120 min with collagenase Type II (Worthington, 290 units/mg, 12 mg/mL final concentration) and dispase II (Roche, 1 unit/mg, 20 mg/mL) in PBS with 10 mM HEPES, pH adjusted to 7.4 with NaOH. DRGs were mechanically dissociated using fire-polished pipettes, filtered through a 100 μm nylon mesh and centrifuged (500 g for 5 min). The pellet was resuspended, plated on 0.5 mg/mL poly-D-lysine-coated glass coverslips, and grown in Neurobasal medium supplemented with 10% FBS, 2% B-27 supplement, and 1% penicillin/streptomycin. Whole-cell patch-clamp recordings in small (<[…]) human DRG neurons were conducted at room temperature using patch pipettes with resistances of 3-4 MΩ.
Whole-Cell Patch Clamp Recordings in HEK293 Cells, CHO Cells, and DRG Neurons. Whole-cell patch clamp recordings were performed at room temperature using an Axopatch-200B amplifier (Axon Instruments) with a Digidata 1440B (Axon Instruments). In this study, we only examined small-diameter mouse DRG neurons (<25 μM) and small-diameter human DRG neurons (<55 μM). The patch pipettes were pulled from borosilicate capillaries (World Precision Instruments) using a P-97 Flaming/Brown micropipette puller (Sutter Instrument). Pipette resistance was 4-6 MΩ for whole-cell and outside-out recording. […]

[2] = target: hTRPA1 (Homo sapiens, UniProt O75762); experiment: Calcium imaging (Fura-2) in TRPA1-expressing HEK293 cells; conditions: 50 μM
Chain of hTRPA1 (O75762 whole entry): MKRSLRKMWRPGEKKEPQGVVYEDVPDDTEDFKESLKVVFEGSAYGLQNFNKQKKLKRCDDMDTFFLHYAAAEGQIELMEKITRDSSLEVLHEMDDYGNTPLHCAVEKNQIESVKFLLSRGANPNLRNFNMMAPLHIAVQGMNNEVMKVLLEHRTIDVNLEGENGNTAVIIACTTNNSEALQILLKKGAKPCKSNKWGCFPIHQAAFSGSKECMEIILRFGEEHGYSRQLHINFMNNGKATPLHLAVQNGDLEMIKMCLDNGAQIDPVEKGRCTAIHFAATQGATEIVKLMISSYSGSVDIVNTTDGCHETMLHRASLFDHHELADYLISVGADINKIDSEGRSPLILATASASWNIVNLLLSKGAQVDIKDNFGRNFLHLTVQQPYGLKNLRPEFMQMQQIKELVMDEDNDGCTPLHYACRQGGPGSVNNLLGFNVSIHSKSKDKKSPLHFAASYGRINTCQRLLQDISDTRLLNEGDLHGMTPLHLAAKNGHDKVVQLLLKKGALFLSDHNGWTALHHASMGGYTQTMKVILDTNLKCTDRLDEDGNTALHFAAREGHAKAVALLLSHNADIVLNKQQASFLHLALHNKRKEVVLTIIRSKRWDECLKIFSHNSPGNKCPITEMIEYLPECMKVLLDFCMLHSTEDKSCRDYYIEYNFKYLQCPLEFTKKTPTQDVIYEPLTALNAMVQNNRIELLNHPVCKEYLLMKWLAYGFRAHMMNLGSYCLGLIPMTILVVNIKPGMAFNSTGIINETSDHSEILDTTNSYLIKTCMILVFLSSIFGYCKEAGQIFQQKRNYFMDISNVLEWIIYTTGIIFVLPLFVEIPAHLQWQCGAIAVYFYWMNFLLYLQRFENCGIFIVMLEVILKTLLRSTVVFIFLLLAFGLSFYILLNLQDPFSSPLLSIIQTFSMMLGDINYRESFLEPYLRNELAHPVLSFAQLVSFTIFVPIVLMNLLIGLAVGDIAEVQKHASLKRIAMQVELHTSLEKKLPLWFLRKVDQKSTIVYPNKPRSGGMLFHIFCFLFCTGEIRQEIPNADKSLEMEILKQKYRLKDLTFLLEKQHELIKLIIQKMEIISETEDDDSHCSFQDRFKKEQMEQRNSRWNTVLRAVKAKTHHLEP
Procedure: Ca^2+ Imaging. Ca ^2+ imaging was conducted in mouse DRG and TG neurons from Pirt-GCaMP3 mice (Anderson et al., Neurosci. Bull. 2018, 34, 194-199) at room temperature. The imaging buffer includes 140 mM NaCl, 10 mM D-(+)-Glucose, 1 mM MgCl2, 2 mM CaCl2, 5 mM KCl, 10 mM HEPES, pH=7.4, osmolarity=320 mOsm/L. Calcium signals were measured using green emitted light in a 3 s interval. Ca ^2+ signal amplitudes were presented as ΔF/F0=(Ft−F0)/F0 as ratio of fluorescence difference (Ft−F0) to basal value (F0). The average fluorescence intensity in the baseline period was taken as F0. Ca ^2+ imaging was also analyzed in HEK293-TRPA1 cell line after loading cells with […] fura2-AM (Invitrogen) for 40 min in the Ca^2+ imaging buffer. Ca^2+ imaging protocol was a ratio metric method with 340/380-nm wavelength light for dual excitation. Data were presented as ΔR/R0, determined as the fraction ΔR (Rt−R0) of the increase of a given ratio over baseline ratio (R0).

[3] = test system: calcium channels; experiment: Calcium current recording in mouse DRG neurons; conditions: 10 μM, 1 min
Procedure: To test the effects of miR-711 on calcium channels, calcium currents were recorded in mouse DRG neurons (Andrade et al., Nat. Neurosci. 2010, 13, 1249-1256). Calcium current was evoked by a 40-ms step depolarization to −10 mV from the holding potential of −80 mV, using i) external solution (mM): 135 mM TEA-C1, 1 mM CaCl2, 10 mM HEPES, 4 mM MgCl2 and 0.1 μM TTX, adjusted to a pH of 7.4 with TEA-OH, and ii) the pipette solution: 126 mM CsCl, 5 mM Mg-ATP, 10 mM EGTA and 10 mM HEPES, adjusted to a pH of 7.3 with CsOH.

CCC(=N\O)/C(C)=C/c1ccc(F)cc1 [A967079, (1E,3E)-1-(4-Fluorophenyl)-2-methyl-1-pentene-3-one oxime]
block of miRNA-evoked inward currents in human DRG neurons [1]: blocked

miR-711: mmu-miR-711: gggacccggggagagauguaag (SEQ ID NO: 5) (GGGACCCGGGGAGAGAUGUAAG; chemistry not given here)
calcium responses in TRPA1-expressing HEK293 cells [2]: evoked calcium responses
calcium currents in DRG neurons [3]: did not alter calcium currents
